Data as given in ChEMBL document CHEMBL1129061, “Inhibition of human glutathione reductase by 10-arylisoalloxazines: crystalline, kinetic, and electrochemical studies” (J Med Chem, 1996).

Target: T1, Glutathione reductase, mitochondrial (Homo sapiens, UniProt P00390)
T1 sequence (P00390 whole entry): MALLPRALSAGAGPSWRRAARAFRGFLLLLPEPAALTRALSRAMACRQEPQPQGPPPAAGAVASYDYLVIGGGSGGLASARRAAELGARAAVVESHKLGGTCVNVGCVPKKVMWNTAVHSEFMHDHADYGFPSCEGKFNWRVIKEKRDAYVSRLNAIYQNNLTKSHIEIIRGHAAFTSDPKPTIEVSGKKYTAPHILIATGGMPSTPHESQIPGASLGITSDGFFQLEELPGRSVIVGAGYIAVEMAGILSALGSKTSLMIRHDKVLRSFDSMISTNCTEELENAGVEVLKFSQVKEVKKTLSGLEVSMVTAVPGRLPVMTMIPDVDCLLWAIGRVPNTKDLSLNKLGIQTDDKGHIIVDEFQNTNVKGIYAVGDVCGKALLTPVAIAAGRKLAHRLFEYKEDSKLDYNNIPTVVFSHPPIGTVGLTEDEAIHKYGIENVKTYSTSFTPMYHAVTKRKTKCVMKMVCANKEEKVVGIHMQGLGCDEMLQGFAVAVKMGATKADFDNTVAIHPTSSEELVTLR
Assay: Inhibitory activity against human glutathione reductase in presence of 100 uM GSSG

IC50 [µM] | SMILES
< 1 | Cn1c(=O)nc2n(-c3c(F)c(F)c(F)c(F)c3F)c3ccccc3nc-2c1=O
4 | Cn1c(=O)nc2n(-c3cccc4cc5ccccc5cc34)c3ccccc3nc-2c1=O
< 1 | O=c1nc2n(-c3cc(Cl)cc(Cl)c3)c3ccccc3nc-2c(=O)[nH]1
1 | Cn1c(=O)nc2n(-c3cccc(C(F)(F)F)c3)c3ccccc3nc-2c1=O
< 1 | O=c1nc2n(-c3ccc(Cl)cc3)c3ccccc3nc-2c(=O)[nH]1
100 | CCOC(=O)Cn1c(=O)nc2n(-c3cc(C(F)(F)F)cc(C(F)(F)F)c3)c3ccccc3nc-2c1=O
3.5 | O=c1nc2n(-c3cc(C(F)(F)F)cc(C(F)(F)F)c3)c3ccccc3nc-2c(=O)[nH]1
< 1 | Cn1c(=O)nc2n(-c3ccc(Cl)cc3)c3ccccc3nc-2c1=O
8 | Cn1c(=O)nc2n(-c3cccnc3)c3ccccc3nc-2c1=O
40 | Cn1c(=O)nc2n(-c3cc[n+](C)cc3)c3ccccc3nc-2c1=O
2.5 | Cn1c(=O)nc2n(-c3ccc(Cl)cc3)c3cc(N=[N+]=[N-])ccc3nc-2c1=O
3 | Cn1c(=O)nc2n(-c3ccncc3)c3ccccc3nc-2c1=O
2 | Cn1c(=O)nc2n(-c3cccc4ccccc34)c3ccccc3nc-2c1=O
8 | CCOC(=O)Cn1c(=O)nc2n(-c3cccc(C(F)(F)F)c3)c3ccccc3nc-2c1=O
< 1 | Cn1c(=O)nc2n(-c3cc(Cl)cc(Cl)c3)c3ccccc3nc-2c1=O
12 | O=C(O)Cn1c(=O)nc2n(-c3ccc(Cl)cc3)c3ccccc3nc-2c1=O
25 | O=C(O)Cn1c(=O)nc2n(-c3cc(C(F)(F)F)cc(C(F)(F)F)c3)c3ccccc3nc-2c1=O
3.5 | O=c1nc2n(-c3c(F)c(F)c(F)c(F)c3F)c3ccccc3nc-2c(=O)[nH]1
1 | O=c1nc2n(-c3cccc(C(F)(F)F)c3)c3ccccc3nc-2c(=O)[nH]1
1 | Cn1c(=O)nc2n(-c3ccc(Cl)cc3)c3cc(F)ccc3nc-2c1=O
14 | O=C(O)Cn1c(=O)nc2n(-c3cc(Cl)cc(Cl)c3)c3ccccc3nc-2c1=O
18 | CCOC(=O)Cn1c(=O)nc2n(-c3ccc(Cl)cc3)c3ccccc3nc-2c1=O
2 | Cn1c(=O)nc2n(-c3ccccc3)c3ccccc3nc-2c1=O
5 | Cn1c(=O)nc2n(-c3cc(C(F)(F)F)cc(C(F)(F)F)c3)c3ccccc3nc-2c1=O
20 | O=C(O)Cn1c(=O)nc2n(-c3cccc(C(F)(F)F)c3)c3ccccc3nc-2c1=O
7 | CCOC(=O)Cn1c(=O)nc2n(-c3cc(Cl)cc(Cl)c3)c3ccccc3nc-2c1=O
